The text below walks through data of article PMC11926880, “Procognitive Potential of Neuroprotective Triazine 5-HT6 Receptor Antagonists Tested on Chronic Activity In Vivo in Rats: Computer-Aided Insight into the Role of Chalcogen-Differences on the Pharmacological Profile” (ACS Chemical Neuroscience, 2025).

Broadly, the Ki is a measure of affinity in units of concentration, obtained from inhibition or displacement. What is called IC50 is the concentration at which inhibition is half-maximal.

Read-outs that look alike come from different tables or passages of the source.

One data set has as its target 5-HT1AR. The note with it: read-out: radioligand binding assay Ki; cloned receptors; cited from earlier work.
In a further data set the test system is SH-SY5Y cells. The data set can be described thus: MTS cell viability assay 27 h. The data set is classed as cell-based, human. The note with it: for IC50: SH-SY5Y. How it is done:
This study used the human neuroblastoma cell line SH-SY5Y (ATCC no. CRL-2266) to investigate the effect on the neuronal cells. The cells (8 × 10^3 cells/100 μL/well) were seeded in transparent 96-well plates (Thermo Scientific, Nunc, no. 161093) in DMEM/F12 (Gibco, no. 11039021) supplemented with 10% FBS (Gibco, no. 10500-064) and cultured overnight. […] Treatment with the compounds was performed for 27 h. After incubation, the cell viability was examined using an MTS-based CellTiter96 AQueous One Solution Cell Proliferation Assay (Promega, Madison, WI, USA) following the manufacturer’s protocol. Briefly, 20 μL of MTS solution was pipetted into each well containing 100 μL of culture or culture medium (negative control) and incubated at 37 °C for 1 h. The absorbance was measured at 490 nm using a Tecan Spark’s multimode plate reader (Tecan, Männedorf, Switzerland). A reference wavelength of 630 nm was used to subtract the background.

A further data set deals with 5-HT7R. The note with it: read-out: radioligand binding assay Ki; cloned receptors; cited from earlier work.
A further data set has as its system rats. The data set can be described thus: NORT after 21 day administration, discrimination index. It is filed as in vivo, rat. Conditions: 21 days; for reversal of (+)MK-801-induced memory disturbances (DI): (+)MK-801 0.1 mg/kg. As for the experimental part:
Standard laboratory food (LSM-B) and filtered water as well as environment enrichment were freely available. Animals were randomly divided into treatment groups using a computer-based random order generator. All of the experiments were performed by two observers unaware of the treatment applied between 9:00 and 14:00 on separate groups of animals.
In the NOR test (NORT), rats were randomly divided into experimental groups (n = 8/group). […] All compounds were prepared immediately before administration and were injected intraperitoneally (i.p.) in a constant volume of 2 mL/kg. […] The control group received 1% Tween 80 on the same schedule.
The test was carried out according to the method described by Ennaceur.[46] NORT was conducted in two black-painted wood boxes (60 cm × 60 cm × 60 cm). A video camera mounted above the boxes recorded all experiments. Two days before the test, the rats were placed in the empty experimental boxes for 5 min as a habituation to the test area. On the third day, the test was performed in 2 trials lasting for 3 min at one-hour intervals. First session, familiarization (T1) with two identical objects (A1 and A2) located in the opposite corners of the boxes, approximately 10 cm from the walls, and second trial, recognition (T2) with one familiar (A) and one novel object (B). Metal cans and glass jars with sand were used as the objects. The boxes were cleaned and dried after each measurement. The exploration time (E) of the objects (such as looking, licking, sniffing, or touching while sniffing) during T2 was measured, and the discrimination index (DI) was calculated according to the following formula: DI = (EB – EA)/(EA + EB).
The normality of data distribution and the homogeneity of variance were checked using the Shapiro–Wilk’s test and Levene’s test, respectively. All behavioral results are shown as the means ± SEM.

`CN1CCN(c2nc(N)nc(C(C)(C)Sc3ccc4ccccc4c3)n2)CC1` [WA-22, 4-(4-methylpiperazin-1-yl)-6-(2-(naphthalen-2-ylthio)propan-2-yl)-1,3,5-triazin-2-amine]: the values for the Ki on 5-HT1AR and on 5-HT7R were 2290 nM and 607 nM, respectively. For the same molecule, the IC50 in the data set with SH-SY5Y cells (Homo sapiens, 27 h, read-out: IC50 x̅ ± SD, MTS, SH-SY5Y, 27 h of exposure) is above 200000 nM; in the data set on SH-SY5Y cells (read-out: IC50 x̅ ± SD, MTS, 27 h of exposure), 238000 ± 15000 nM. In addition, the “effect on cell viability” value in the data set with SH-SY5Y cells (all tested concentrations (0–50 μM), 27 h) is “did not affect cell viability”. For the same molecule, the “influence on memory compared to vehicle-treated rats (DI)” value in the data set on rats (1 mg/kg/day i.p., without (+)MK-801) was “No memory changing”. Besides, the “reversal of (+)MK-801-induced memory disturbances (DI)” value in the data set on rats (1 mg/kg/day i.p.) was “significantly reversed”; in the data set with rats (3 mg/kg/day i.p.) it was “also observed for a dose of 3 mg/kg, but memory restoration was not at the same level as that of control rats”.
